The first assay addresses T1, Integrin alpha-4/beta-7 (Homo sapiens, UniProt P13612+P26010).
T1 sequence (P13612 whole entry): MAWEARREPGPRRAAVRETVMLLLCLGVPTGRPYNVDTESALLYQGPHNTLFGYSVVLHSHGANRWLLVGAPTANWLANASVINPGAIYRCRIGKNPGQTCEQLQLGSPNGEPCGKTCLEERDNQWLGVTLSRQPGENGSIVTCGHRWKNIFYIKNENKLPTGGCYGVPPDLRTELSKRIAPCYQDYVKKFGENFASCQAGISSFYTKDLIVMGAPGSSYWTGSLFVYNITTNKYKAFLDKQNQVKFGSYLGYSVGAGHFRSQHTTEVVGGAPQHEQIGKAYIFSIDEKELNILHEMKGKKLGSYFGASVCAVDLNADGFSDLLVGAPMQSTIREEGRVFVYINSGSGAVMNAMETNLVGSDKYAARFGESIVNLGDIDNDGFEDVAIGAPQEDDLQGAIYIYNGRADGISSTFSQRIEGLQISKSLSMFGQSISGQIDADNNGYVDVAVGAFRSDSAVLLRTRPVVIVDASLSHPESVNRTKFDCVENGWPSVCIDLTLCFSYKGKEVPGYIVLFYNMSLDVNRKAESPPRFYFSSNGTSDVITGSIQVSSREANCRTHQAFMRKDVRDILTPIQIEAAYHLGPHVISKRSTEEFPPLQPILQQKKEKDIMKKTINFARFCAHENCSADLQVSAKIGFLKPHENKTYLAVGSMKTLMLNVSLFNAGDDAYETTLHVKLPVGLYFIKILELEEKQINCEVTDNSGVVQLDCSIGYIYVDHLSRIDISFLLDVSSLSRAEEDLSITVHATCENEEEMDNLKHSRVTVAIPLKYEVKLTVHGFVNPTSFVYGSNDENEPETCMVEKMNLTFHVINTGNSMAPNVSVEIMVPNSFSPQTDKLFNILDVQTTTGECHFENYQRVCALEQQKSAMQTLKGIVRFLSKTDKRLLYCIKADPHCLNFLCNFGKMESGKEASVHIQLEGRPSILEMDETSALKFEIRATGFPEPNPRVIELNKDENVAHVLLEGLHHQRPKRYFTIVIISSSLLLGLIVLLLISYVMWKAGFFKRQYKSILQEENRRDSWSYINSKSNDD
T1 sequence (P26010 whole entry): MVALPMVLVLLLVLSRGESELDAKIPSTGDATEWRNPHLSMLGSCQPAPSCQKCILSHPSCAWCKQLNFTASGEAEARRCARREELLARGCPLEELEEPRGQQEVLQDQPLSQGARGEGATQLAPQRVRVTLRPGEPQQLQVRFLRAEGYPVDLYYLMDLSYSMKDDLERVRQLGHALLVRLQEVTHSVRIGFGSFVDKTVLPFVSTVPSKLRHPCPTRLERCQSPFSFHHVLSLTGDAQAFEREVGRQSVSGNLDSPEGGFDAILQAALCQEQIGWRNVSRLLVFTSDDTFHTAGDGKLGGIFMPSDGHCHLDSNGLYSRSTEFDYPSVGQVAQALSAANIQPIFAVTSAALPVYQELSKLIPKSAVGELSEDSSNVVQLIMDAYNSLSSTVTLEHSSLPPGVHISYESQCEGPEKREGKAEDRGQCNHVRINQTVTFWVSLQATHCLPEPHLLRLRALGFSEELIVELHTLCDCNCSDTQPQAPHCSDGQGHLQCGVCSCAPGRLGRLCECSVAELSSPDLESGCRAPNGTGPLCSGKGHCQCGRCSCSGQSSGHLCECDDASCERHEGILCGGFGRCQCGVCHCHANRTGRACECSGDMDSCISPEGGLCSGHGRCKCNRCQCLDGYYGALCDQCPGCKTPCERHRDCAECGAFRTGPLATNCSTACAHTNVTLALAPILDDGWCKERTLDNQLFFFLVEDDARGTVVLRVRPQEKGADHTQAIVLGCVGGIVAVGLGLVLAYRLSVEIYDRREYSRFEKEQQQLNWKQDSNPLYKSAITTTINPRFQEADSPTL
In words: Inhibition of alpha-4 beta7/MAdCAM mediated cell adhesion was evaluated using B-cell lymphoma RPMI 8866 cells. Format: functional, cell-based.
In turn, `CC(C)(C)COC(=O)[C@H](Cc1ccccc1)NCc1cc([N+](=O)[O-])ccc1O` returned an IC50 of 9 µM.
As for `CC(C)CCOC(=O)[C@H](Cc1ccccc1)NCc1cc([N+](=O)[O-])ccc1O`, the IC50 stood at 7 µM.
On the same count and under the same terms, in the case of `COc1cccc(CN[C@@H](Cc2ccccc2)C(=O)OC(C)(C)C)c1` it was 122 µM.
The same measure, in the same setting: in the case of `COc1ccccc1CN[C@@H](Cc1ccccc1)C(=O)OC(C)(C)C` it was 50 µM; in that of `CC(C)(C)OC(=O)[C@H](Cc1ccccc1)NCc1cccc(O)c1`, 54 µM.
Molecule `CC(C)(C)OC(=O)[C@H](Cc1ccccc1)NCc1ccc(F)cc1` yielded an IC50 of 121 µM.
Same read-out and setting: in the case of `COc1ccc(CN[C@@H](Cc2ccccc2)C(=O)OC(C)(C)C)cc1` it was 122 µM.
The same measure, in the same setting: the figure for `C=C(C)CCOC(=O)[C@H](Cc1ccccc1)NCc1cc([N+](=O)[O-])ccc1O` is 82 µM.
`O=C(OCc1ccccc1)[C@H](Cc1ccccc1)NCc1cc([N+](=O)[O-])ccc1O` yielded an IC50 of 7 µM.
On the same count and under the same terms, in the case of `CC(C)(C)OC(=O)[C@H](Cc1ccccc1)NCc1ccccc1F` it was 117 µM; in that of `CC(C)(C)OC(=O)[C@H](Cc1ccccc1)NCc1cc([N+](=O)[O-])ccc1O`, 30 µM; in that of `CC(C)(C)OC(=O)[C@H](Cc1ccccc1)NCc1cccc(F)c1`, 176 µM.
The molecule `CC(C)(C)OC(=O)[C@H](Cc1ccccc1)NCc1ccccc1` gave an IC50 of 100 µM.
In the case of `CC(C)CCNC(=O)[C@H](Cc1ccccc1)NCc1cc([N+](=O)[O-])ccc1O`, the midpoint of inhibition, the IC50, lay at 6 µM.
On the same count and under the same terms, in the case of `CC(C)(C)OC(=O)[C@H](Cc1ccccc1)NCc1ccccc1O` it was 60 µM.
In the case of `CC(C)(C)OC(=O)[C@H](Cc1ccccc1)NCc1ccc(O)cc1`, the IC50 was 85 µM.

A further assay has as its target T1, Integrin alpha-4/beta-7. In words: Inhibition of alpha-4 beta7/MAdCAM mediated cell adhesion was evaluated using B-cell lymphoma RPMI 8866 cells; In active. Format: functional, cell-based.
`CC(C)CCNC(=O)[C@@H](Cc1ccccc1)NCc1cc([N+](=O)[O-])ccc1O`: the IC50 entry was “Not Active”.
Same read-out and setting: in the case of `CC(C)(C)OC(=O)[C@H](Cc1ccccc1)NCc1ccc([N+](=O)[O-])c(O)c1` it was “Not Active”.

Values taken from ChEMBL document CHEMBL1133132, “Cell adhesion antagonists: synthesis and evaluation of a novel series of phenylalanine based inhibitors” (Bioorg Med Chem Lett, 2000).
